Each block holds one molecule with its values, some of them ahead of it.
System: 633275-114-R-J1-PDC complex spheroids, viability
Test: Anticancer human tumor 633275-114-R-J1-PDC patient-derived endometrial adenocarcinoma cell line growth inhibition [GQUAD]
Settings: for IC50: curve of first compound; for viability, T/C: stronger effect = lower value
Summary of the method: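 Multi-cell-type spheroids of tumor cells with HUVEC and mesenchymal stem cells, treated with drug combinations. Concentrations descend in half-log steps from near clinical Cmax, or from 10 microM where Cmax is unknown; viability read-out.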

[1] = second compound 0.0316 µM, first compound 0.0316 µM
[2] = second compound 0.0316 µM, first compound 0.316 µM
[3] = second compound 0.1 µM, first compound 0.0316 µM
[4] = second compound 0.1 µM, first compound 0.316 µM
[5] = second compound 0.316 µM, first compound 0.0316 µM
[6] = second compound 0.316 µM, first compound 0.316 µM
[7] = second compound 1 µM, first compound 0.0316 µM
[8] = second compound 1 µM, first compound 0.316 µM
[9] = second compound 3.16 µM, first compound 0.0316 µM
[10] = second compound 3.16 µM, first compound 0.316 µM
[11] = second compound 10 µM, first compound 0.0316 µM
[12] = second compound 10 µM, first compound 0.316 µM
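Also: spheroids exposed to the agents for seven days.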
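For viability, T/C in this document: percent of DMSO vehicle control viability which is 100%.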

IC50 (second compound 0.0316 µM): < 31.6 nM
IC50 (second compound 0.1 µM): < 31.6 nM
IC50 (second compound 0.316 µM): < 31.6 nM
IC50 (second compound 1 µM): < 31.6 nM
IC50 (second compound 3.16 µM): < 31.6 nM
IC50 (second compound 10 µM): < 31.6 nM
SMILES: CC(=O)O[C@H]1C(=O)[C@@]2(C)[C@H]([C@H](OC(=O)c3ccccc3)[C@]3(O)C[C@H](OC(=O)[C@H](O)[C@@H](NC(=O)c4ccccc4)c4ccccc4)C(C)=C1C3(C)C)[C@]1(OC(C)=O)CO[C@@H]1C[C@@H]2O + Cc1cnc(CNC(=O)c2c(=O)c3ccc(N4CCCN(C)CC4)nc3n3c2sc2ccccc23)cn1
viability, T/C [1]: 43.8%
viability, T/C (second compound 0.0316 µM, first compound 0.1 µM): 30.5%
viability, T/C [2]: 27.4%
viability, T/C (second compound 0.0316 µM, first compound 1 µM): 25.1%
viability, T/C (second compound 0.0316 µM, first compound 3.16 µM): 24.9%
viability, T/C (second compound 0.0316 µM, first compound 10 µM): 25.6%
viability, T/C [3]: 42.3%
viability, T/C (second compound 0.1 µM, first compound 0.1 µM): 37.3%
viability, T/C [4]: 32.8%
viability, T/C (second compound 0.1 µM, first compound 1 µM): 35.2%
viability, T/C (second compound 0.1 µM, first compound 3.16 µM): 33.9%
viability, T/C (second compound 0.1 µM, first compound 10 µM): 34.1%
viability, T/C [5]: 43.5%
viability, T/C (second compound 0.316 µM, first compound 0.1 µM): 39.3%
viability, T/C [6]: 41.7%
viability, T/C (second compound 0.316 µM, first compound 1 µM): 38.2%
viability, T/C (second compound 0.316 µM, first compound 3.16 µM): 35.8%
viability, T/C (second compound 0.316 µM, first compound 10 µM): 35.3%
viability, T/C [7]: 38.5%
viability, T/C (second compound 1 µM, first compound 0.1 µM): 37.4%
viability, T/C [8]: 39.3%
viability, T/C (second compound 1 µM, first compound 1 µM): 43.2%
viability, T/C (second compound 1 µM, first compound 3.16 µM): 35.1%
viability, T/C (second compound 1 µM, first compound 10 µM): 36.2%
viability, T/C [9]: 39%
viability, T/C (second compound 3.16 µM, first compound 0.1 µM): 35%
viability, T/C [10]: 35.8%
viability, T/C (second compound 3.16 µM, first compound 1 µM): 39.7%
viability, T/C (second compound 3.16 µM, first compound 3.16 µM): 35.8%
viability, T/C (second compound 3.16 µM, first compound 10 µM): 32.6%
viability, T/C [11]: 31.1%
viability, T/C (second compound 10 µM, first compound 0.1 µM): 28.7%
viability, T/C [12]: 27.5%
viability, T/C (second compound 10 µM, first compound 1 µM): 31.7%
viability, T/C (second compound 10 µM, first compound 3.16 µM): 32.4%
viability, T/C (second compound 10 µM, first compound 10 µM): 30.8%

IC50 (second compound 0.0316 µM): 1.6 nM
IC50 (second compound 0.1 µM): < 0.999 nM
IC50 (second compound 0.316 µM): < 0.999 nM
IC50 (second compound 1 µM): < 0.999 nM
IC50 (second compound 3.16 µM): < 0.999 nM
IC50 (second compound 10 µM): < 0.999 nM
SMILES: CCc1c2c(nc3ccc(O)cc13)-c1cc3c(c(=O)n1C2)COC(=O)[C@]3(O)CC + Cc1cnc(CNC(=O)c2c(=O)c3ccc(N4CCCN(C)CC4)nc3n3c2sc2ccccc23)cn1
viability, T/C (second compound 0.0316 µM, first compound 0.000999 µM): 57.4%
viability, T/C (second compound 0.0316 µM, first compound 0.00316 µM): 38.5%
viability, T/C (second compound 0.0316 µM, first compound 0.00999 µM): 32.5%
viability, T/C [1]: 32.5%
viability, T/C (second compound 0.0316 µM, first compound 0.0999 µM): 26.6%
viability, T/C [2]: 24.4%
viability, T/C (second compound 0.1 µM, first compound 0.000999 µM): 46.3%
viability, T/C (second compound 0.1 µM, first compound 0.00316 µM): 36.2%
viability, T/C (second compound 0.1 µM, first compound 0.00999 µM): 35.4%
viability, T/C [3]: 32.4%
viability, T/C (second compound 0.1 µM, first compound 0.0999 µM): 27.2%
viability, T/C [4]: 25.2%
viability, T/C (second compound 0.316 µM, first compound 0.000999 µM): 42.9%
viability, T/C (second compound 0.316 µM, first compound 0.00316 µM): 37.9%
viability, T/C (second compound 0.316 µM, first compound 0.00999 µM): 33.9%
viability, T/C [5]: 31.2%
viability, T/C (second compound 0.316 µM, first compound 0.0999 µM): 30%
viability, T/C [6]: 26.8%
viability, T/C (second compound 1 µM, first compound 0.000999 µM): 40.4%
viability, T/C (second compound 1 µM, first compound 0.00316 µM): 35.3%
viability, T/C (second compound 1 µM, first compound 0.00999 µM): 35.9%
viability, T/C [7]: 30.2%
viability, T/C (second compound 1 µM, first compound 0.0999 µM): 27.8%
viability, T/C [8]: 18.7%
viability, T/C (second compound 3.16 µM, first compound 0.000999 µM): 34%
viability, T/C (second compound 3.16 µM, first compound 0.00316 µM): 31.9%
viability, T/C (second compound 3.16 µM, first compound 0.00999 µM): 28.3%
viability, T/C [9]: 27%
viability, T/C (second compound 3.16 µM, first compound 0.0999 µM): 24.9%
viability, T/C [10]: 13.4%
viability, T/C (second compound 10 µM, first compound 0.000999 µM): 30.3%
viability, T/C (second compound 10 µM, first compound 0.00316 µM): 28%
viability, T/C (second compound 10 µM, first compound 0.00999 µM): 26.4%
viability, T/C [11]: 27.8%
viability, T/C (second compound 10 µM, first compound 0.0999 µM): 21.1%
viability, T/C [12]: 0.26%
